Among the data in PubChem BioAssay (NCI) are TGI values, retold here.

Where “and” joins values, the source holds several entries; their conditions need not be identical. Equal values may be shown once.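 48-hour exposure; five concentrations; linearly interpolated endpoints. The concentration for full growth arrest is given as TGI.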

Holding throughout (assay): inhibition of tumour cell growth, NCI panel, 48 h
The subject of assay [1] is OVCAR-8 ovarian.
The test system of assay [2] is U251 CNS.
Assay [3] has as its system MDA-N.
The test system of assay [4] is HCT-116 colon.
For assay [5], the system named is UACC-62 melanoma.
The test system of assay [6] is IGROV1 ovarian.
The test system of assay [7] is MDA-MB-231 breast.
Assay [8] deals with NCI-H460 lung.
For assay [9], the system named is PC-3 prostate.
In assay [10] the test system is UO-31 renal.

As to `CCCCCCCCP(=O)(O)OP(=O)(O)OCC1OC(n2ccc(N)nc2=O)C(O)C1O` (stereo not given), the TGI in assay [1], in [2], in assay [3], in assay [4], in [5] and in assay [6] was more than 100 µM in each case. Moreover, the TGI in assay [7], in assay [8], in [9] and in assay [10] was more than 100 µM in each case.
As to `Cc1ccc(S(=O)(=O)N/N=C2\CC3CC4CCC2C4C3)cc1` (stereo not given), the TGI in [1], in assay [2], in [3], in assay [4], in [5] and in assay [6] was more than 100 µM in each case. Besides, the TGI in assay [7], in assay [8], in assay [9] and in assay [10] was more than 100 µM each time.
For `C=CCOC(=O)N1c2ccc(O)cc2[C@@]23O[C@@]24[C@@H]1C#C/C=C\C#C[C@]3(O)C(OC)(OC)C[C@@H]4C`, the TGI in assay [1] was 85.5 µM; in assay [2] it was more than 100 µM; in assay [3] it was 77.5 µM; in [4] it was more than 100 µM; in assay [5] it was more than 100 µM; in assay [6], 80.8 µM. Moreover, the TGI is 52.8 µM in assay [7], 83.3 µM in [8], 77.6 µM in [9] and more than 100 µM in assay [10].
`Cc1ccc(N=Nc2c(O)ccc3cc(S(=O)(=O)O)ccc23)cc1`: the TGI in [1], in assay [2], in assay [3], in assay [4], in assay [5] and in [6] was more than 100 µM each time. Further, the TGI is > 100 µM and 45.7 µM in assay [7]; more than 100 µM in assay [8]; more than 100 µM in assay [9]; more than 100 µM in assay [10].
`CC(=O)O[C@H]1C[C@@H](OC(C)=O)[C@@](C)(O)[C@@H]2[C@@H](OC(C)=O)[C@@]3(O)[C@H](/C=C(/CO)[C@H]4O[C@H]4[C@@H](OC(C)=O)[C@@]12C)OC(=O)[C@@H]3C`: the TGI in assay [1] was more than 25 µM; in assay [2] it was 21.4 µM; in [3] it was 7.63 µM; in assay [4], more than 25 µM; in [5] it was more than 25 µM; in assay [6] it was more than 25 µM. Also, the TGI in assay [7], in assay [8], in assay [9] and in [10] was more than 25 µM in each case.
Regarding `CCOC(=O)CCN1C(=O)C(=O)N(c2ccc(OC)cc2)C1=S`, the TGI in [1] was more than 100 µM; in assay [2] it was more than 100 µM; in assay [3], more than 100 µM; in [4] it was more than 100 µM; in assay [5], 48.5 µM; in [6], more than 100 µM. The TGI in assay [7], in assay [8], in assay [9] and in assay [10] was more than 100 µM throughout.
In the case of `COC(=O)c1c(C)cccc1C1CN=NC12Cc1cc(C)cc(C)c1C2=O` (stereo not given), the TGI in assay [1], in assay [2], in [3], in assay [4], in [5] and in assay [6] was more than 100 µM each time. Also, the TGI in [7] was 98.2 µM; in assay [8], more than 100 µM; in [9], more than 100 µM; in [10], more than 100 µM.
`Cc1c(C)c(C)c(-n2c(=O)n(C)c(=O)n2-c2cc(C(C)(C)C)cc(C(C)(C)C)c2O)c(C)c1C`: the TGI in assay [1] was 22.7 µM; in [2] it was 19.6 µM; in [3] it was 22.9 µM; in assay [4], 18.4 µM; in [5] it was 23.7 µM; in assay [6], 22 µM. The TGI in assay [7] turned out to be 17 µM; in assay [8] it was 27.1 µM; in assay [9], 12 µM; in assay [10] it was 14.1 µM.
In the case of `C#C[C@@]1(O)CCCC2=CC3(CC[C@]21C)SCCS3`, the TGI in assay [1], in assay [2], in assay [3], in [4], in assay [5] and in assay [6] was more than 100 µM each time. The TGI in assay [7], in [8], in [9] and in [10] was more than 100 µM each time.
On to `CC1(C)C2CCC1C(=O)[C@@]1(C=CC(=O)CC1)C2` (stereo not given in full), for which the TGI in assay [1], in [2], in assay [3], in [4], in assay [5] and in [6] was more than 100 µM each time. Besides, the TGI in assay [7], in assay [8], in [9] and in assay [10] was more than 100 µM in each case.
Turning to `COC(=O)C1CCC(=O)N1C(c1cc(OC)c(OC)c(OC)c1)c1cccc2ccccc12` (stereo not given), the TGI in assay [1], in assay [2], in assay [3], in [4], in assay [5] and in [6] was more than 100 µM throughout. In addition, the TGI in assay [7], in assay [8], in [9] and in assay [10] was more than 100 µM throughout.
In the case of `CCN(CC)c1ccc(/C=C2\CCc3ccc([N+](=O)[O-])cc3C2=O)cc1`, the TGI in assay [1] was more than 100 µM; in assay [2], more than 100 µM; in assay [3], 0.523 µM; in assay [4] it was more than 100 µM; in assay [5] it was more than 100 µM; in assay [6] it was more than 100 µM. Moreover, the TGI was more than 100 µM in assay [7], more than 48.9 µM in assay [8], more than 100 µM in assay [9] and more than 100 µM in assay [10].
